# US12084472B2 (Ardelyx, Inc., priority 2015, dated 2024)
# Molecular target: T1, human TGR5 (Homo sapiens, UniProt Q8TDU6)
# T1 construct: expressed in transfected cells; host or cells: HEK293
# T1 sequence (Q8TDU6 1-330): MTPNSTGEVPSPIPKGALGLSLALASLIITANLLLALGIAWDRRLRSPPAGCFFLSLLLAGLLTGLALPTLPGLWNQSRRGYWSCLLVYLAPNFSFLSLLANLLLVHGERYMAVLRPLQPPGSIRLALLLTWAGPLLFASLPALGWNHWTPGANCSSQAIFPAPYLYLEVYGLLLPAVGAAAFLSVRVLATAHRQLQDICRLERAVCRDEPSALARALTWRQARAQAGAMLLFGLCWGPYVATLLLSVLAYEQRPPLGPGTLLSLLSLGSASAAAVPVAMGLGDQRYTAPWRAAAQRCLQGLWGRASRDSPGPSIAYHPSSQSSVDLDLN
# Assay: Cell-based TGR5 assay (cAMP generation, HTRF)
# Conditions: HEK293 cells stably transfected with human TGR5; cAMP by HTRF; 30 minutes at 37° C.; read-out: pEC50 Human TGR5 (converted)
# How it was run: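 First, compounds in 3-fold serial dilution were placed in HBSS with 10 mM HEPES pH 7.4 and 0.5 mM IBMX. Next, human TGR5-expressing HEK293 cells were added and incubated 30 min at 37° C. Finally, cAMP was detected by HTRF and pEC50 derived by logistic fitting.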
row,EC50,SMILES
1,< 100 nM,"CN(CCO[C@@H]1O[C@H](CO)[C@@H](O)[C@H](O)[C@H]1O)C(=O)CCCCc1cc(Cl)c(COC2(c3cnccc3-c3ccccc3OC3CC3)CC2)cc1Cl [Compound I-121, 5-(2,5-dichloro-4-((1-(4-(2-cyclopropoxyphenyl)pyridin-3-yl)cyclopropoxy)methyl)phenyl)-N-methyl-N-(2-(((2R,3R,4S,5S,6R)-3,4,5-trihydroxy-6-(hydroxymethyl)tetrahydro-2H-pyran-2-yl)oxy)ethyl)pentanamide]"
2,< 100 nM,"O=C(CCCCc1cc(Cl)c(COC2(c3cnccc3-c3ccccc3OC3CC3)CC2)cc1Cl)N(CC(O)CO)C[C@H](O)[C@@H](O)[C@H](O)[C@H](O)CO (stereo partly drawn) [Compound I-122, 5-(2,5-dichloro-4-((1-(4-(2-cyclopropoxyphenyl)pyridin-3-yl)cyclopropoxy)methyl)phenyl)-N-(2,3-dihydoxypropyl)-N-((2S,3R,4R,5R)-2,3,4,5,6-pentahydroxyhexyl) pentanamide]"
3,< 100 nM,"CC[C@@H](O)CN(C[C@H](O)[C@@H](O)[C@H](O)[C@H](O)CO)C(=O)CCCCc1cc(Cl)c(COC2(c3cnccc3-c3ccccc3OC3CC3)CC2)cc1Cl [Compound I-123, 5-[2,5-dichloro-4-({1-[4-(2-cyclopropoxyphenyl)pyridin-3-yl]cyclopropoxy}methyl)phenyl]-N-[(2R)-2-hydroxybutyl]-N-[(2S,3R,4R,5R)-2,3,4,5,6-pentahydroxyhexyl]pentanamide]"
4,< 100 nM,"COC[C@H](O)CN(C[C@H](O)[C@@H](O)[C@H](O)[C@H](O)CO)C(=O)CCCCc1cc(Cl)c(COC2(c3cnccc3-c3ccccc3OC3CC3)CC2)cc1Cl [Compound I-124, 5-[2,5-dichloro-4-({1-[4-(2-cyclopropoxyphenyl)pyridin-3-yl]cyclopropoxy}methyl)phenyl]-N-[(2R)-2-hydroxy-3-methoxypropyl]-N-[(2S,3R,4R,5R)-2,3,4,5,6-pentahydroxyhexyl]pentanamide]"
5,< 100 nM,"COC[C@@H](O)CN(C[C@H](O)[C@@H](O)[C@H](O)[C@H](O)CO)C(=O)CCCCc1cc(Cl)c(COC2(c3cnccc3-c3ccccc3OC3CC3)CC2)cc1Cl [Compound I-125, 5-[2,5-dichloro-4-({1-[4-(2-cyclopropoxyphenyl)pyridin-3-yl]cyclopropoxy}methyl)phenyl]-N-[(2S)-2-hydroxy-3-methoxypropyl]-N-[(2S,3R,4R,5R)-2,3,4,5,6-pentahydroxyhexyl]pentanamide]"
6,126 to 1000 nM,"O=C(CCCCc1cc(Cl)c(COC2(c3cnccc3-c3ccccc3OC3CC3)CC2)cc1Cl)N(Cc1ccccc1)C[C@H](O)[C@@H](O)[C@H](O)[C@H](O)CO [Compound I-126, N-benzyl-5-(2,5-dichloro-4((1-(4-(2-cyclopropoxyphenyl)pyridin-3-yl)cyclopropoxy)methyl)phenyl)-N-((2S,3R,4R,5R)-2,3,4,5,6-pentahydroxyhexyl)pentanamide]"
7,< 100 nM,"COCCN(C[C@H](O)[C@@H](O)[C@H](O)[C@H](O)CO)C(=O)CCCCc1cc(Cl)c(COC2(c3cnccc3-c3ccccc3OC3CC3)CC2)cc1Cl [Compound I-127, 5-[2,5-dichloro-4-({1-[4-(2-cyclopropoxyphenyl)pyridin-3-yl]cyclopropoxy}methyl)phenyl]-N-(2-methoxyethyl)-N-[(2S,3R,4R,5R)-2,3,4,5,6-pentahydroxyhexyl]pentanamide]"
8,< 100 nM,"CC(C)N(C[C@H](O)[C@@H](O)[C@H](O)[C@H](O)CO)C(=O)CCCCc1cc(Cl)c(COC2(c3cnccc3-c3ccccc3OC3CC3)CC2)cc1Cl [Compound I-128, 5-[2,5-dichloro-4-({1-[4-(2-cyclopropoxyphenyl)pyridin-3-yl]cyclopropoxy}methyl)phenyl]-N-[(2S,3R,4R,5R)-2,3,4,5,6-pentahydroxyhexyl]-N-(propan-2-yl)pentanamide]"
9,< 100 nM,"CCCN(C[C@H](O)[C@@H](O)[C@H](O)[C@H](O)CO)C(=O)CCCCc1cc(Cl)c(COC2(c3cnccc3-c3ccccc3OC3CC3)CC2)cc1Cl [Compound I-129, 5-[2,5-dichloro-4-({1-[4-(2-cyclopropoxyphenyl)pyridin-3-yl]cyclopropoxy}methyl)phenyl]-N-[(2S,3R,4R,5R)-2,3,4,5,6-pentahydroxyhexyl]-N-propylpentanamide]"
10,< 100 nM,"CS(=O)(=O)CCN(C[C@H](O)[C@@H](O)[C@H](O)[C@H](O)CO)C(=O)CCCCc1cc(Cl)c(COC2(c3cnccc3-c3ccccc3OC3CC3)CC2)cc1Cl [Compound I-130, 5-[2,5-dichloro-4-({1-[4-(2-cyclopropoxyphenyl)pyridin-3-yl]cyclopropoxy}methyl)phenyl]-N-(2-methanesulfonylethyl)-N-[(2S,3R,4R,5R)-2,3,4,5,6-pentahydroxyhexyl]pentanamide]"
11,< 100 nM,"O=C(CCCCc1cc(Cl)c(COC2(c3cnccc3-c3ccccc3OC3CC3)CC2)cc1Cl)N(C[C@H](O)[C@@H](O)[C@H](O)[C@H](O)CO)C1CCOCC1 [Compound I-131, 5-[2,5-dichloro-4-({1-[4-(2-cyclopropoxyphenyl)pyridin-3-yl]cyclopropoxy}methyl)phenyl]-N-(oxan-4-yl)-N-[(2S,3R,4R,5R)-2,3,4,5,6-pentahydroxyhexyl]pentanamide]"
12,< 100 nM,"Cc1cc(COC2(c3cnccc3-c3ccccc3OC3CC3)CC2)c(Cl)cc1CCCCN(C)C(=O)[C@@H](O)[C@@H](O)[C@H](O)[C@@H](O)CO [Compound I-132, (2S,3S,4R,5S)-N-{4-[5-chloro-4-({1-[4-(2-cyclopropoxyphenyl)pyridin-3-yl]cyclopropoxy}methyl)-2-methylphenyl]butyl}-2,3,4,5,6-pentahydroxy-N-methylhexanamide]"
13,126 to 1000 nM,"COc1ccccc1-c1ccncc1C1(NCc2cc(Cl)c(CCCCC(=O)NC[C@H](O)[C@@H](O)[C@H](O)[C@H](O)CO)cc2Cl)CC1 [Compound I-133, 5-{2,5-dichloro-4-[({1-[4-(2-methoxyphenyl)pyridin-3-yl]cyclopropyl}amino)methyl]phenyl}-N-[(2S,3R,4R,5R)-2,3,4,5,6-pentahydroxyhexyl]pentanamide]"
14,126 to 1000 nM,"COc1ccccc1-c1ccncc1C1(NCc2cc(Cl)c(CCCCC(=O)N(C)C[C@H](O)[C@@H](O)[C@H](O)[C@H](O)CO)cc2Cl)CC1 [Compound I-134, 5-{2,5-dichloro-4-[({1-[4-(2-methoxyphenyl)pyridin-3-yl]cyclopropyl}amino)methyl]phenyl}-N-methyl-N-[(2S,3R,4R,5R)-2,3,4,5,6-pentahydroxyhexyl]pentanamide]"
15,< 100 nM,"O=C(CCCCc1cc(Cl)c(COC2(c3cnccc3-c3ccccc3OC3CC3)CC2)cc1Cl)NC[C@H](O)[C@@H](O)[C@H](O)[C@H](O)CO [Compound I-135, 5-[2,5-dichloro-4-({1-[4-(2-cyclopropoxyphenyl)pyridin-3-yl]cyclopropoxy}methyl)phenyl]-N-[(2S,3R,4R,5R)-2,3,4,5,6-pentahydroxyhexyl]pentanamide]"
16,< 100 nM,"CN(C[C@H](O)[C@@H](O)[C@H](O)[C@H](O)CO)C(=O)CCCCc1cc(Cl)c(COC2(c3cnccc3-c3ccccc3OC3CC3)CC2)cc1Cl [Compound I-136, 5-[2,5-dichloro-4-({1-[4-(2-cyclopropoxyphenyl)pyridin-3-yl]cyclopropoxy}methyl)phenyl]-N-methyl-N-[(2S,3R,4R,5R)-2,3,4,5,6-pentahydroxyhexyl]pentanamide]"
17,< 100 nM,"CN(C[C@H](O)[C@@H](O)[C@H](O)[C@H](O)CO)C(=O)CCCCc1cc(Cl)c(CNC2(c3cnccc3-c3ccccc3OC3CC3)CC2)cc1Cl [Compound I-137, 5-{2,5-dichloro-4-[({1-[4-(2-cyclopropoxyphenyl)pyridin-3-yl]cyclopropyl}amino)methyl]phenyl}-N-methyl-N-[(2S,3R,4R,5R)-2,3,4,5,6-pentahydroxyhexyl]pentanamide]"
18,< 100 nM,"O=C(NCCCCc1cc(Cl)c(CNC2(c3cnccc3-c3ccccc3OC3CC3)CC2)cc1Cl)NC[C@H](O)[C@@H](O)[C@H](O)[C@H](O)CO [Compound I-138, 1-(4-{2,5-dichloro-4-[({1-[4-(2-cyclopropoxyphenyl)pyridin-3-yl]cyclopropyl}amino)methyl]phenyl}butyl)-3-[(2S,3R,4R,5R)-2,3,4,5,6-pentahydroxyhexyl]urea]"
19,< 100 nM,"CC(CCCc1cc(Cl)c(COC2(c3cnccc3-c3ccccc3OC3CC3)CC2)cc1Cl)C(=O)NC[C@H](O)[C@@H](O)[C@H](O)[C@H](O)CO (stereo partly drawn) [Compound I-139, 5-[2,5-dichloro-4-({1-[4-(2-cyclopropoxyphenyl)pyridin-3-yl]cyclopropoxy}methyl)phenyl]-2-methyl-N-[(2S,3R,4R,5R)-2,3,4,5,6-pentahydroxyhexyl]pentanamide]"
20,< 100 nM,"CC(CCCc1cc(Cl)c(COC2(c3cnccc3-c3ccccc3OC3CC3)CC2)cc1Cl)C(=O)N(C)C[C@H](O)[C@@H](O)[C@H](O)[C@H](O)CO (stereo partly drawn) [Compound I-140, 5-[2,5-dichloro-4-({1-[4-(2-cyclopropoxyphenyl)pyridin-3-yl]cyclopropoxy}methyl)phenyl]-N,2-dimethyl-N-[(2S,3R,4R,5R)-2,3,4,5,6-pentahydroxyhexyl]pentanamide]"
21,< 100 nM,"O=C(NCCCCc1cc(Cl)c(COC2(c3cnccc3-c3ccccc3OC3CC3)CC2)cc1Cl)NC[C@H](O)[C@@H](O)[C@H](O)[C@H](O)CO [Compound I-141, 1-{4-[2,5-dichloro-4-({1-[4-(2-cyclopropoxyphenyl)pyridin-3-yl]cyclopropoxy}methyl)phenyl]butyl}-3-[(2S,3R,4R,5R)-2,3,4,5,6-pentahydroxyhexyl]urea]"
